Assay [1] deals with four of the readers. In words: ITC, reader domains taken together. The class given is binding, human. To be noted: four of the five readers. An excerpt: We investigated the thermodynamics of association of the H3KP4me3 peptide with five representative human reader domains containing either a PHD zinc finger or TTD, i.e. KDM5APHD3 (JARID1A-PHD3, residues M1489–V1641)[10], TAF3PHD (R857–K924)[22], BPTFPHD (L2583–N2751)[23], SGF29TTD (R115–K293)[24] and KDM4ATTD (JMJD2A, Q897-P1011)[25], selected on the basis of their preference for binding Ν^ε-trimethyllysine over other (non)methylation marks (Kme0 < Kme1 < Kme2 < Kme3), and their domain and aromatic cage diversity. The recombinant readers were produced in E. coli following reported procedures. Isothermal titration calorimetric (ITC) analyses were used to determine the dissociation constant (Kd), the Gibbs free energy of binding (ΔG°), the enthalpy of binding (ΔH°), and the entropy of binding (ΔS°). […] (Table 1, Fig. 2, Supplementary Fig. 1).
ITC studies followed a reported procedure. […] Histone peptide titrations were performed with the same reader batches. Solutions of the reader in buffer (25–40 µM) and of the histone H3 peptide (350–600 µM) in buffer were prepared. […] Heats of dilution for histone peptides determined in control experiments were subtracted from the titration binding data. Data were analysed with Origin 6.0 (Microcal Inc., Northampton, Massachusetts, USA) and curve fitting with one-site binding mode was applied.

The target in assay [2] is T1, KDM4EJmjC (M1–Q337) (Homo sapiens, UniProt B2RXH2).
T1 construct: We chose human KDM4EJmjC (M1–Q337); made in house
T1 sequence (B2RXH2 1-337): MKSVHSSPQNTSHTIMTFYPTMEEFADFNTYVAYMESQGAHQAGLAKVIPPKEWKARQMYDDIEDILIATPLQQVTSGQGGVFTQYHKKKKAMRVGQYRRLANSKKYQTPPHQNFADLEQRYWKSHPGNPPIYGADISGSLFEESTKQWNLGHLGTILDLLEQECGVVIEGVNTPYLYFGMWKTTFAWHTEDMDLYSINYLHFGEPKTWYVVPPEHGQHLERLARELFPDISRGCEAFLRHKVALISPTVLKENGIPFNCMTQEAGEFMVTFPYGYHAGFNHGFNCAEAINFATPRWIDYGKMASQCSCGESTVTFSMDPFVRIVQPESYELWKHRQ
In words: MALDI-TOF demethylation assay, KDM4EJmjC. The class given is biochemical. The method, then:
Reactions were monitored using MALDI-TOF mass spectrometry (Fig. 5b–d).
A Bruker Daltonics MALDI-TOF/TOF AutoflexSpeed machine and Bruker MTP 384 target plates (polished steel BC, Part: 8280781) were used. The machine was controlled using Flex control (v. 3.4 build 135.10) and Compass for flex series (v. 1.4) software. Measurements were in the positive ion mode with the reflectron mode enabled. Incubations employed ProxiPlate-384™ (Perkin Elmer) plates into which was pipetted a solution of [H3_1-15K9me3 (10.0 µM), (+)-sodium L-ascorbate (1.0 mM), (NH4)2Fe(II)(SO4)2 (100 µM), di-sodium 2-oxoglutarate (200 µM) in buffer (HEPES (50 mM)) in MilliQ (pH 7.5)] (5.0 µL) using ClipTip™ (Thermo Scientific™) pipette tips and E1-ClipTip™ (Thermo Scientific™). The enzyme solution [KDM4EJmjC (1.0 µM) in HEPES (50 mM)] (5.0 µL) was added to initiate reaction at 37 °C. Reactions were quenched with formic acid in water (2%, 5.0 µL). Samples were then spotted onto a MALDI-TOF target plate (1.0 µL), MALDI matrix [sat. sol. α-cyano-4-hydroxy-cinnamic acid (10 mg·mL^−1) in {trifluoro acetic acid, acetonitrile and MilliQ (0.1:50:50)}] (1.0 µL) was added, mixed, and dried in air. Samples were then analysed by MALDI-TOF. Specific experiments were supplemented with catalase from bovine liver (C3155-50MG, Merck) (5.0 µM), bovine albumin serum (BSA, Perkin Elmer, CR84-100, DTPA purified 7.5%) (5.0 µM), or Tris(carboxyethyl)phosphine hydrochloride salt (TCEP, M02624, Fluorochem) (500 µM).

Assay [3] addresses T1, KDM4EJmjC (M1–Q337). The assay can be described thus: FDH coupled demethylation assay (formaldehyde release), KDM4EJmjC. The class given is biochemical. To be noted: KDM4EJmjC 0–10 µM, H3KP9me3 10 µM; n = 3 or 4. The method, then:
To test whether formaldehyde is generated by H3KP9me3 demethylation, a formaldehyde dehydrogenase (FDH) coupled assay was employed (Supplementary Fig. 19a)[34],[37]. […]
measurement of the formation of NADH. a FDH enzyme coupled to KDM4E JmjC demethylation assay measuring the levels of […]
(0–50 µM). c Michaelis-Menten analysis. Standard conditions: FDH (1.0 µM), Asc (1.0 mM), Fe(II) (50 µM), 2OG (200 µM) and NAD+ (250 µM). Errors are standard deviations of the mean (n = 2 or 3).
(1 picture or pasted object on this page, not shown here)
Supplementary Fig. 20 FDH activity assay of KDM4E JmjC (0–10 µM) catalysed demethylation of H3K P9me 3 (10 µM) […]
Standard conditions: FDH (1.0 µM), Ascorbate (1.0 mM), Fe(II) (50 µM), 2OG (200 µM) and NAD + (250 µM). Errors are standard deviations of the mean (n = 3 or 4).

“Also recorded” adds a separate entry of the source.

This is an account of results in publication PMC7613515, “Reading and erasing of the phosphonium analogue of trimethyllysine by epigenetic proteins” (Communications Chemistry, 2022).

As for `C[C@H](N)C(=O)N[C@@H](CCCNC(=N)N)C(=O)N[C@H](C(=O)N[C@@H](CCCC[P+](C)(C)C)C(=O)N[C@@H](CCC(N)=O)C(=O)N[C@H](C(=O)N[C@@H](C)C(=O)N[C@@H](CCCNC(=N)N)C(=O)N[C@@H](CCCCN)C(=O)N[C@@H](CO)C(N)=O)[C@@H](C)O)[C@@H](C)O` [H3KP4me3], the “binding relative to H3K4me3” value in assay [1] is recorded as “stronger complex formation than with H3K4me3”.

Turning to “ARTKQTAR(KPme3)STGGKA [H3KP9me3, histone H3 residues 1–15 with trimethylphosphonium lysine analogue at position 9]”, the “demethylation in competition assay” value in assay [2] (H3K9me3 (5.0 µM) and H3KP9me3 (5.0 µM) in the same vessel, KDM4EJmjC 0.5 µM) is reported as “no evidence that H3KP9me3 was converted to H3KP9me2 or H3KP9me2O”. In addition, in assay [2] (H3K9me3 versus H3KP9me3), the “relative substrate quality / rate” value was “demethylation rate is significantly slower for H3KP9me3 than for H3K9me3”. Also, the “demethylation in omission controls” value in assay [2] (H3KP9me3: without KDM4EJmjC, Asc, Fe(II) or 2OG, H3K9me3: without Asc and Fe(II), 1 hr) is “little or no H3KP9me2 or H3KP9me2O formation”. Besides, the “demethylation” value in assay [2] (KDM4EJmjC 0.5 µM (H3KP9me3 also at 5.0 µM enzyme), peptide 5.0 or 6.0 µM, Asc 500 µM, Fe(II) 50 µM, 2OG 100 µM) is listed as “only undergo a single demethylation (−14 Da) to give H3KP9me2”. In assay [2] (KDM4EJmjC 0.5 µM, catalase 5.0 µM, BSA 5.0 µM), the “effect of catalase with or without Asc or BSA” value is listed as “did not substantially alter the amounts of H3KP9me2 or H3KP9me2O”. In assay [2] (TCEP as a reducing agent, KDM4EJmjC 0.5 µM), the “yield with TCEP rather than Asc” value was “slightly increased yields of H3KP9me2 and H3KP9me2O”. Further, the “product formation” value in assay [2] (stoichiometric: KDM4EJmjC 5.0 µM, peptide 5.0 µM) is “faster H3KP9me2 and H3KP9me2O product formation, but no evidence for H3KP9me1 or H3KP9 formation”. The “formaldehyde release” value in assay [3] is recorded as “in an enzyme dependent manner that releases formaldehyde; also recorded: time-dependent increase in formaldehyde”.
